According to ChEMBL document CHEMBL1649296, “Modifying culture conditions in chemical library screening identifies alternative inhibitors of mycobacteria” (Antimicrob Agents Chemother, 2009):
Converted amounts (≈) assume the structure as drawn. Where a name gives a salt, the structure may show the parent alone.

Key:
Assay type in all cases: functional, organism-based
[1] = test system: Mycolicibacterium smegmatis; assay: Antimycobacterial activity against Mycobacterium smegmatis grown in nitrogen -limited broth medium assessed as growth inhibition in mid-logarithmic phase by GFP-based fluorescence assay
[2] = test system: Mycolicibacterium smegmatis; assay: Antimycobacterial activity against Mycobacterium smegmatis grown in Luria-Bertani broth medium assessed as growth inhibition in mid-logarithmic phase by GFP-based fluorescence assay
[3] = test system: Mycolicibacterium smegmatis; assay: Antimycobacterial activity against Mycobacterium smegmatis grown in carbon-limited broth medium assessed as growth inhibition in mid-logarithmic phase by spectrophotometry
[4] = test system: Mycolicibacterium smegmatis; assay: Antimycobacterial activity against Mycobacterium smegmatis grown in carbon-limited broth medium assessed as growth inhibition in mid-logarithmic phase by GFP-based fluorescence assay
[5] = test system: Mycolicibacterium smegmatis; assay: Antimycobacterial activity against Mycobacterium smegmatis grown in nitrogen -limited broth medium assessed as growth inhibition in mid-logarithmic phase by spectrophotometry
[6] = test system: Mycolicibacterium smegmatis; assay: Antimycobacterial activity against Mycobacterium smegmatis grown in Luria-Bertani broth medium assessed as growth inhibition in mid-logarithmic phase by spectrophotometry

| Molecule | IC50 ([1]; Mycolicibacterium smegmatis) [µM] | MIC ([1]; Mycolicibacterium smegmatis) [µM] | IC50 ([2]; Mycolicibacterium smegmatis) [µM] | MIC ([2]; Mycolicibacterium smegmatis) [µM] | IC50 ([3]; Mycolicibacterium smegmatis) [µM] | MIC ([3]; Mycolicibacterium smegmatis) [µM] | IC50 ([4]; Mycolicibacterium smegmatis) [µM] | MIC ([4]; Mycolicibacterium smegmatis) [µM] | IC50 ([5]; Mycolicibacterium smegmatis) [µM] | MIC ([5]; Mycolicibacterium smegmatis) [µM] | IC50 ([6]; Mycolicibacterium smegmatis) [µM] | MIC ([6]; Mycolicibacterium smegmatis) [µM] | also measured |
| --- | --- | --- | --- | --- | --- | --- | --- | --- | --- | --- | --- | --- | --- |
| O=S1(=O)N(CCN2CC=C(c3c[nH]c4cc(F)ccc34)CC2)c2cccc3c2N1CCC3 | 22.3 | 50 (≈ 22.6 µg/mL) | 25.1 | 50 (≈ 22.6 µg/mL) | 25.3 | 25 (≈ 11.3 µg/mL) | 25.3 | 25 (≈ 11.3 µg/mL) | 22.3 | 50 (≈ 22.6 µg/mL) | 25.1 | 50 (≈ 22.6 µg/mL) |  |
| Cc1cc(N)c2ccccc2[n+]1CCCCCCCCCCCCCC[n+]1c(C)cc(N)c2ccccc21 | 1.74 | 3.12 | 3.95 | 6.25 | 2.73 | 6.25 | 2.73 | 6.25 | 1.74 | 3.12 | 3.95 | 6.25 |  |
| CN(C)C(CCCCC[N+](C)(C)CCCN1C(=O)c2cccc3cccc(c23)C1=O)CCCN1C(=O)c2cccc3cccc(c23)C1=O (stereo unspecified) | 6 | 25 | 8.15 | 50 | 11.7 | 50 | 11.7 | 50 | 6 | 25 | 8.15 | 50 |  |
| 4-CHLOROMERCURIBENZOIC ACID |  |  |  |  |  |  |  |  |  |  |  |  | IC50 [1]: 6.33 µM; IC50 [2]: 7.07 µM; IC50 [3]: 7.65 µM; IC50 [4]: 7.65 µM; IC50 [5]: 6.33 µM; IC50 [6]: 7.07 µM |
| 4-[sequence] ACID |  |  |  |  |  |  |  |  |  |  |  |  | MIC [1]: 12.5 µM; MIC [2]: 25 µM; MIC [3]: 6.25 µM; MIC [4]: 6.25 µM; MIC [5]: 12.5 µM; MIC [6]: 25 µM |
| Cc1c(C)c2c(c(C)c1O)CCC(C)(CN1CCN(c3cc(N4CCCC4)nc(N4CCCC4)n3)CC1)O2 (single isomer, unassigned) | 34.2 | 50 (≈ 26 µg/mL) | > 50 | 50 (≈ 26 µg/mL) | > 50 | 50 (≈ 26 µg/mL) | > 50 | 50 (≈ 26 µg/mL) | 34.2 | 50 (≈ 26 µg/mL) | > 50 | 50 (≈ 26 µg/mL) |  |
| CC(C)(C)c1ccc(S(=O)(=O)/C=C/C#N)cc1 [BAY-11-7085] | 6.22 | 12.5 (≈ 3.12 µg/mL) | 30.6 | 50 (≈ 12.5 µg/mL) | 2.58 | 6.25 (≈ 1.56 µg/mL) | 2.58 | 6.25 (≈ 1.56 µg/mL) | 6.22 | 12.5 (≈ 3.12 µg/mL) | 30.6 | 50 (≈ 12.5 µg/mL) |  |
| CNc1ccc2oc(C[C@H]3O[C@@]4(CC[C@H]3C)O[C@H]([C@H](C)C(=O)c3ccc[nH]3)[C@H](C)C[C@H]4C)nc2c1C(=O)O [CALCIMYCIN] | 3.43 | 12.5 (≈ 6.55 µg/mL) | 1.04 | 3.12 (≈ 1.64 µg/mL) | 5.21 | 12.5 (≈ 6.55 µg/mL) | 5.21 | 12.5 (≈ 6.55 µg/mL) | 3.43 | 12.5 (≈ 6.55 µg/mL) | 1.04 | 3.12 (≈ 1.64 µg/mL) |  |
| Clc1ccc(C(c2ccc(Cl)cc2)[n+]2ccn(CC(OCc3ccc(Cl)cc3Cl)c3ccc(Cl)cc3Cl)c2)cc1 (stereo unspecified) [CALMIDAZOLIUM CHLORIDE] | 7.02 | 12.5 | 13.2 | 12.5 | 13.8 | 50 | 13.8 | 50 | 7.02 | 12.5 | 13.2 | 12.5 |  |
| Clc1ccccc1C(c1ccccc1)(c1ccccc1)n1ccnc1 [CLOTRIMAZOLE] | 12.2 | 50 (≈ 17.2 µg/mL) | 6.54 | 12.5 (≈ 4.31 µg/mL) | 18.2 | 50 (≈ 17.2 µg/mL) | 18.2 | 50 (≈ 17.2 µg/mL) | 12.2 | 50 (≈ 17.2 µg/mL) | 6.54 | 12.5 (≈ 4.31 µg/mL) |  |
| CN(C)[C@@H]1C(O)=C(C(N)=O)C(=O)[C@@]2(O)C(O)=C3C(=O)c4c(O)ccc(Cl)c4[C@@H](O)[C@H]3C[C@@H]12 [DEMECLOCYCLINE] | 4.4 | 6.25 (≈ 2.91 µg/mL) | 1.88 | 3.12 (≈ 1.45 µg/mL) | 5.92 | 6.25 (≈ 2.91 µg/mL) | 5.92 | 6.25 (≈ 2.91 µg/mL) | 4.4 | 6.25 (≈ 2.91 µg/mL) | 1.88 | 3.12 (≈ 1.45 µg/mL) |  |
| c1ccc2c(c1)[I+]c1ccccc1-2 [DIPHENYLENEIODONIUM] | 1.63 | 3.12 | 6.77 | 6.25 | 8.53 | 3.12 | 8.53 | 3.12 | 1.63 | 3.12 | 6.77 | 6.25 |  |
| C[C@H]1c2cccc(O)c2C(=O)C2=C(O)[C@]3(O)C(=O)C(C(N)=O)=C(O)[C@@H](N(C)C)[C@@H]3[C@@H](O)[C@@H]21 [DOXYCYCLINE] | 1.95 | 3.12 (≈ 1.39 µg/mL) | 0.76 | 1.56 (≈ 0.693 µg/mL) | 2.98 | 3.12 (≈ 1.39 µg/mL) | 2.98 | 3.12 (≈ 1.39 µg/mL) | 1.95 | 3.12 (≈ 1.39 µg/mL) | 0.76 | 1.56 (≈ 0.693 µg/mL) |  |
| CC(=O)[C@]1(O)Cc2c(O)c3c(c(O)c2[C@@H](O[C@H]2C[C@H](N)[C@H](O)[C@H](C)O2)C1)C(=O)c1ccccc1C3=O [IDARUBICIN] | 5.13 | 12.5 (≈ 6.22 µg/mL) | 3.61 | 12.5 (≈ 6.22 µg/mL) | 6.68 | 25 (≈ 12.4 µg/mL) | 6.68 | 25 (≈ 12.4 µg/mL) | 5.13 | 12.5 (≈ 6.22 µg/mL) | 3.61 | 12.5 (≈ 6.22 µg/mL) |  |
| CCn1cc(C(=O)O)c(=O)c2cc(F)c(N3CCNC(C)C3)c(F)c21 (stereo unspecified) [LOMEFLOXACIN] | 1.44 | 6.25 (≈ 2.2 µg/mL) | 4.33 | 12.5 (≈ 4.39 µg/mL) | 4.88 | 6.25 (≈ 2.2 µg/mL) | 4.88 | 6.25 (≈ 2.2 µg/mL) | 1.44 | 6.25 (≈ 2.2 µg/mL) | 4.33 | 12.5 (≈ 4.39 µg/mL) |  |
| COc1ccccc1CNCCCCCCNCCCCCCCCNCCCCCCNCc1ccccc1OC [METHOCTRAMINE HYDROCHLORIDE] | 7.45 | 12.5 | 15.9 | 12.5 | 6.88 | 12.5 | 6.88 | 12.5 | 7.45 | 12.5 | 15.9 | 12.5 |  |
| C[Se]C[C@H](N)C(=O)O [METHYLSELENOCYSTEINE] | 0.6 | 12.5 (≈ 2.28 µg/mL) | > 50 | > 50 | 2.19 | 12.5 (≈ 2.28 µg/mL) | 2.19 | 12.5 (≈ 2.28 µg/mL) | 0.6 | 12.5 (≈ 2.28 µg/mL) | > 50 | > 50 |  |
| CN(C)c1ccc(O)c2c1C[C@H]1C[C@H]3[C@H](N(C)C)C(O)=C(C(N)=O)C(=O)[C@@]3(O)C(O)=C1C2=O [MINOCYCLINE] | 7.23 | 12.5 (≈ 5.72 µg/mL) | 6.77 | 12.5 (≈ 5.72 µg/mL) | 5.02 | 12.5 (≈ 5.72 µg/mL) | 5.02 | 12.5 (≈ 5.72 µg/mL) | 7.23 | 12.5 (≈ 5.72 µg/mL) | 6.77 | 12.5 (≈ 5.72 µg/mL) |  |
| O=C1c2c(O)ccc(O)c2C(=O)c2c(NCCNCCO)ccc(NCCNCCO)c21 [MITOXANTRONE] | 5.02 | 50 (≈ 22.2 µg/mL) | 21.8 | 50 (≈ 22.2 µg/mL) | 9.7 | 50 (≈ 22.2 µg/mL) | 9.7 | 50 (≈ 22.2 µg/mL) | 5.02 | 50 (≈ 22.2 µg/mL) | 21.8 | 50 (≈ 22.2 µg/mL) |  |
| O=C(Nc1ccc([N+](=O)[O-])cc1Cl)c1cc(Cl)ccc1O [NICLOSAMIDE] | 4.73 | 6.25 (≈ 2.04 µg/mL) | 6.85 | 12.5 (≈ 4.09 µg/mL) | 3.31 | 6.25 (≈ 2.04 µg/mL) | 3.31 | 6.25 (≈ 2.04 µg/mL) | 4.73 | 6.25 (≈ 2.04 µg/mL) | 6.85 | 12.5 (≈ 4.09 µg/mL) |  |
| CC1COc2c(N3CCN(C)CC3)c(F)cc3c(=O)c(C(=O)O)cn1c23 (stereo unspecified) [OFLOXACIN] | 1.73 | 6.25 (≈ 2.26 µg/mL) | 2.03 | 3.12 (≈ 1.13 µg/mL) | 3.13 | 6.25 (≈ 2.26 µg/mL) | 3.13 | 6.25 (≈ 2.26 µg/mL) | 1.73 | 6.25 (≈ 2.26 µg/mL) | 2.03 | 3.12 (≈ 1.13 µg/mL) |  |
| N=C(N)c1ccc(OCCCCCOc2ccc(C(=N)N)cc2)cc1 [PENTAMIDINE] | 9.1 | 50 (≈ 17 µg/mL) | 23.5 | 50 (≈ 17 µg/mL) | 11.1 | 25 (≈ 8.51 µg/mL) | 11.1 | 25 (≈ 8.51 µg/mL) | 9.1 | 50 (≈ 17 µg/mL) | 23.5 | 50 (≈ 17 µg/mL) |  |
| c1cnc2c(c1)ccc1cccnc12 [PHENANTHROLINE] | 5.76 | 12.5 (≈ 2.25 µg/mL) | 41.6 | 50 (≈ 9.01 µg/mL) | 4.99 | 12.5 (≈ 2.25 µg/mL) | 4.99 | 12.5 (≈ 2.25 µg/mL) | 5.76 | 12.5 (≈ 2.25 µg/mL) | 41.6 | 50 (≈ 9.01 µg/mL) |  |
| CN1CCN(CCCN2c3ccccc3Sc3ccc(C(F)(F)F)cc32)CC1 [TRIFLUOPERAZINE] | 3.15 | 50 (≈ 20.4 µg/mL) | 12.3 | 50 (≈ 20.4 µg/mL) | 12.3 | 50 (≈ 20.4 µg/mL) | 12.3 | 50 (≈ 20.4 µg/mL) | 3.15 | 50 (≈ 20.4 µg/mL) | 12.3 | 50 (≈ 20.4 µg/mL) |  |
